Measured values published in ChEMBL document CHEMBL5331121, “Preferred Conformation-Guided Discovery of Potent and Orally Active HIF Prolyl Hydroxylase 2 Inhibitors for the Treatment of Anemia” (J Med Chem, 2023).
Calls of active or inactive are those of the source. The rule behind the calls is not given here.

How the values were obtained:
Egl nine homolog 1 = Egl nine homolog 1 (Homo sapiens, UniProt Q9GZT9); test: Binding affinity to […] PHD2 (181 to 426 residues) (unknown origin) by fluorescence polarization assay
Sequence of Egl nine homolog 1 (Q9GZT9 whole entry, the tested form may be a part): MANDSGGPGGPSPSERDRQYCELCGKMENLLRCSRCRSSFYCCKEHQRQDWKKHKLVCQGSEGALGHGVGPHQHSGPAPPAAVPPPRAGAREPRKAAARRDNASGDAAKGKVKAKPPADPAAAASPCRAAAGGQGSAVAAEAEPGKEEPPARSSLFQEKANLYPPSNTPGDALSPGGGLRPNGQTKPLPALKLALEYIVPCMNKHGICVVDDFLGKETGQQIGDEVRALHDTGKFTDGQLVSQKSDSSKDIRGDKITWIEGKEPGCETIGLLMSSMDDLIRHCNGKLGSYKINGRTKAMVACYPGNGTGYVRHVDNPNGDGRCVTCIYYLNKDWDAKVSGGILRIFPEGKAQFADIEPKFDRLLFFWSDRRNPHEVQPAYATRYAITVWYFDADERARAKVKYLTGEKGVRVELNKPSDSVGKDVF

Mus musculus = test: Upregulation of reticulocytes in C57BL/6J mouse at 10 mg/kg, po administered once daily for 3 days; type: functional, organism-based; conditions: time 3.0 day
[1] = target: Endothelial PAS domain-containing protein 1 (Homo sapiens) (UniProt Q99814); test: Induction of HIF-2alpha stabilization in human Hep3B cells at 20 to 50 uM by Western blotting analysis; type: cell-based; conditions: dose 20-50 µM
Sequence of Endothelial PAS domain-containing protein 1 (Homo sapiens) (Q99814 whole entry, the tested form may be a part): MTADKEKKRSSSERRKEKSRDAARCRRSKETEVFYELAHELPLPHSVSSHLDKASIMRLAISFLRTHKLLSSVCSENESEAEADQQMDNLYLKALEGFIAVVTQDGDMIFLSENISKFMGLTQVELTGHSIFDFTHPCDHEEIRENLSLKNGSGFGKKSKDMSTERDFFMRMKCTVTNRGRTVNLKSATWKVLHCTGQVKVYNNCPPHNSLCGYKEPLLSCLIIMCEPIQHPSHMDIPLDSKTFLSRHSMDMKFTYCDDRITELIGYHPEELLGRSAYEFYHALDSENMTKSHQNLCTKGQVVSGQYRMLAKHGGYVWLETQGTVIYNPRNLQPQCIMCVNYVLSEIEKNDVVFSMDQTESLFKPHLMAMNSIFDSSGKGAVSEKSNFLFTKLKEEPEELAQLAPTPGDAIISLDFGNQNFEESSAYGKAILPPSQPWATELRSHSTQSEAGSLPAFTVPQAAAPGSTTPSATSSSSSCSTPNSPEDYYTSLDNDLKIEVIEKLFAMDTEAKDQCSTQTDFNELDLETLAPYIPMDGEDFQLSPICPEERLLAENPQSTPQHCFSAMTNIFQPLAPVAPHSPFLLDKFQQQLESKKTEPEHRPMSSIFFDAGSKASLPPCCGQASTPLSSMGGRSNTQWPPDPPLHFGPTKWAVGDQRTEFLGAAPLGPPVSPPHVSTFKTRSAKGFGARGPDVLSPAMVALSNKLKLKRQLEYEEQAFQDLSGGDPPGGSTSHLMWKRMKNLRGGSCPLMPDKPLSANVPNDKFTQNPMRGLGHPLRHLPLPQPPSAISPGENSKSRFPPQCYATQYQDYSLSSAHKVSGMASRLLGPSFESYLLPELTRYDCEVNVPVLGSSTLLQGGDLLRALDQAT

[2] = target: Hypoxia-inducible factor 1-alpha (Homo sapiens) (UniProt Q16665); test: Induction of HIF-1alpha stabilization in human Hep3B cells at 20 to 50 uM by Western blotting analysis; type: cell-based; conditions: dose 20-50 µM
Sequence of Hypoxia-inducible factor 1-alpha (Homo sapiens) (Q16665 whole entry, looked up): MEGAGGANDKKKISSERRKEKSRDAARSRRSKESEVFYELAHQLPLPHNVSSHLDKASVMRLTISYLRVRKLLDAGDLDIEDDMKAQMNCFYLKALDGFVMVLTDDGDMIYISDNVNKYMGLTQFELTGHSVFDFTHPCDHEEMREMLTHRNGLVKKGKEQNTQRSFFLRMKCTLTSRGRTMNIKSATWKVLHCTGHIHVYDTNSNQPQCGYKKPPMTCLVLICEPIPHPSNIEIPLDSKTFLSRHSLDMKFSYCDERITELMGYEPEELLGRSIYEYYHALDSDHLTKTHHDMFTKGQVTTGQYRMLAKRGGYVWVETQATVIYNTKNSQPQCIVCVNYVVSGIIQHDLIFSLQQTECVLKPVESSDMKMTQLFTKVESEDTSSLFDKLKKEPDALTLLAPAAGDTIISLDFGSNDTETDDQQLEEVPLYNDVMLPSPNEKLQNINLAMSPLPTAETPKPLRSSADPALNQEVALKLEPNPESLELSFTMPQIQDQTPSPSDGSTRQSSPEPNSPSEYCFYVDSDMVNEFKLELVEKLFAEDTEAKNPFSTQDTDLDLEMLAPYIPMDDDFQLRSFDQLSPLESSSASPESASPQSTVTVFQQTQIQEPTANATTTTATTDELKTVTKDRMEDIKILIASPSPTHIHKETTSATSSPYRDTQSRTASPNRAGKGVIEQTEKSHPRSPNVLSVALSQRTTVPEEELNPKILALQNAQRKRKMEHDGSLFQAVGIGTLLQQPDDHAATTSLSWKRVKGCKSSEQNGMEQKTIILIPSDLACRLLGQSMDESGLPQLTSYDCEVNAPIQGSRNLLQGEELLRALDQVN

Erythrocyte = test: Upregulation of reticulocytes in C57BL/6J mouse assessed as increase in RBC at 10 to 50 mg/kg, po administered once daily for 3 days; type: functional, organism-based; conditions: dose 10-50 mg/kg, time 3.0 day

| IC50 (Egl nine homolog 1) [nM] | Compound | other results |
| --- | --- | --- |
| 144 | O=C(O)CNC(=O)c1ncc(C2CCN(C(=O)c3ccc(Cl)cc3Cl)CC2)cc1O | – |
| 131 | O=C(O)CNC(=O)c1ncc(C2CCN(C(=O)c3ccccc3Cl)CC2)cc1O | – |
| 15.6 | O=C(O)CNC(=O)c1ncc(C#CCOc2ccc(Cl)cc2)cc1O [DDO-3055] | – |
| – | Cc1nc(C(=O)NCC(=O)O)c(O)c2ccc(Oc3ccccc3)cc12 | Activity (Mus musculus): Active; Activity [1]: Active; Activity [2]: Active; Activity (Erythrocyte): Dose-Dependent Effect |
| 19.6 | O=C(O)CNC(=O)c1ncc(C2CCN(C(=O)CNc3ccc(Cl)c(Cl)c3)CC2)cc1O | Activity (Mus musculus): Active |
| 34.6 | Cc1ccc(C(=O)N2CCC(c3cnc(C(=O)NCC(=O)O)c(O)c3)CC2)cc1 | – |
| 67.5 | O=C(O)CNC(=O)c1ncc(C2CCN(C(=O)c3ccc(F)cc3)CC2)cc1O | – |
